In PubChem BioAssay (NCI):
Values joined by “and” are separate entries in the source; they are usually repeats but may differ in a detail not shown here. Identical values can stand only once.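 Protocol summary: plate cells (96-well), add compound at 5 concentrations, incubate 48 h, interpolate endpoints linearly. Abbreviation: GI50, concentration required for 50% inhibition of growth. TGI is the concentration that stops growth completely.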

Assays:
Assay in all cases: DTP human tumour cell line panel, 48 h
[1] = tested on: KM12 colon
[2] = tested on: MDA-MB-435
[3] = tested on: CAKI-1 renal
[4] = tested on: SNB-19 CNS
[5] = tested on: HCC-2998 colon
[6] = tested on: A498 renal
[7] = tested on: NCI-H226 lung
[8] = tested on: UACC-257 melanoma
[9] = tested on: BT-549 breast
[10] = tested on: MDA-N
[11] = tested on: HL-60(TB) leukemia
[12] = tested on: MALME-3M melanoma

| SMILES | GI50 [1] | TGI [1] [µM] | TGI [2] [µM] | TGI [3] [µM] | TGI [4] [µM] | TGI [5] [µM] | TGI [6] [µM] | TGI [7] [µM] | TGI [8] [µM] | TGI [9] [µM] | TGI [10] [µM] | GI50 [11] | TGI [11] [µM] | TGI [12] [µM] |
| --- | --- | --- | --- | --- | --- | --- | --- | --- | --- | --- | --- | --- | --- | --- |
| COC1C(OC(C)=O)CC(=O)OC(C)C/C=C/C=C\C(O)C(C)CC(CC=O)C1OC1OC(C)C(OC2CC(C)(O)C(OC(=O)CC(C)C)C(C)O2)C(N(C)C)C1O (stereo unspecified) | 37.9 µM and 85.3 µM | > 100 | > 100 | > 100 | > 100 | > 100 | > 100 | > 100 | > 100 | > 100 | > 100 | 36.2 µM and > 100 µM | > 100 | > 100 |
| Nc1nc(Cc2ccccc2)nc(Cc2ccccc2)c1-c1ccccc1 |  | 75 | 59.3 | 96.1 | > 100 | > 100 | 46.7 | 53.4 | > 100 | 50.9 | 38.8 |  | 60.5 | 50.2 |
